Experimental data reported in patent US20180125835A1, “Dosage and Use of an A2A Antagonist” (H. Lundbeck A/S, priority 2014, published 2018).

Legend:
[1] = molecular target: A2A receptor (Mus musculus, UniProt Q60613); experiment: Adenosine receptor binding affinity, mouse A2A
[2] = PET study, pharmacokinetic assessments; type: in vivo; conditions: human, plasma, single oral doses 0.5 to 5 mg
Source text: The pharmacokinetic parameters of compound 504 were estimated using non-compartmental analysis.

[3] = molecular target: A2A receptor (Rattus norvegicus, UniProt P30543); experiment: Adenosine receptor binding affinity, rat A2A
[4] = molecular target: T1, A1 receptor (Callithrix jacchus, UniProt U3EV00); experiment: Adenosine receptor binding affinity, marmoset A1
T1 sequence (U3EV00 1-326): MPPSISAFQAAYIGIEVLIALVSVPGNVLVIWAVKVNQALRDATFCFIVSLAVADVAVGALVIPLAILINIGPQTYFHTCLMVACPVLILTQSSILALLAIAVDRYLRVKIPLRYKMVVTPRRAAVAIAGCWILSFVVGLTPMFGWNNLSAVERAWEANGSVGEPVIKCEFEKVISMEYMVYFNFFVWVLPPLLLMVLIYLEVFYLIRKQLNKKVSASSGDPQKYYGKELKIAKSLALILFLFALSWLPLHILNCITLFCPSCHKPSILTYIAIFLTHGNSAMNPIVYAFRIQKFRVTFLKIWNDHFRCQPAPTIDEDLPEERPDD

[5] = tested on: Long Evans rats; experiment: 5-choice serial reaction time task (5-CSRTT); type: in vivo, rat
Source text: (A) Testing under standard conditions, i.e. equivalent to final conditions to which the animals were trained, i.e. stimulus duration (SD) 0.75 seconds (s), inter-trial interval (ITI) 5 s, 100 trials. The purpose of this condition being to measure drug effect on performance under standard conditions. (B) Testing under conditions of extended (long) ITI, i.e. low event rate, SD 0.3 s, ITI 5, 7.5, 10 s, 120 trials. The purpose of this condition being to measure drug effect on performance under lower event rate requiring the animal to delay its responding. (C) Testing under conditions of short ITI, i.e. high event rate, SD 0.3 s, ITI 3, 4, 5 s, 120 trials. The purpose of this condition to measure drug effect on performance under high event rate requiring the animal to rapidly process sensory information. (D) Testing under conditions of extended trials, i.e. SD 0.3 s, ITI 5 s, 250 trials. The purpose of this condition to measure drug effect on performance under extended trials, testing sustained attention or vigilance.
Sixteen (16) experimentally naïve, male Long Evans rats were trained to asymptotic performance in the 5-CSRTT over a period of approximately 2-3 months. The rats were trained to final stimulus duration (SD) of 0.75 s, 5 s inter-trial interval (ITI), 5 s limited hold (LH), 100 trials per session. Target performance levels under these conditions was in the range of >80% accuracy and <20% omissions.
Once the group of animals were trained, multiple drug studies according to various experimental tasks (see table 2 below) was tested in the same cohort of rats. […] The study design was made up of 4 experiments, with each experiment 2-3 weeks in duration and a 1 week intervening period between each experiment.

[6] = molecular target: A2A receptor (Canis lupus familiaris, UniProt P11617); experiment: Adenosine receptor binding affinity, dog A2A
[7] = molecular target: T2, A3 (Homo sapiens, UniProt P0DMS8); experiment: Adenosine receptor binding affinity, human A3
T2 sequence (P0DMS8 1-318): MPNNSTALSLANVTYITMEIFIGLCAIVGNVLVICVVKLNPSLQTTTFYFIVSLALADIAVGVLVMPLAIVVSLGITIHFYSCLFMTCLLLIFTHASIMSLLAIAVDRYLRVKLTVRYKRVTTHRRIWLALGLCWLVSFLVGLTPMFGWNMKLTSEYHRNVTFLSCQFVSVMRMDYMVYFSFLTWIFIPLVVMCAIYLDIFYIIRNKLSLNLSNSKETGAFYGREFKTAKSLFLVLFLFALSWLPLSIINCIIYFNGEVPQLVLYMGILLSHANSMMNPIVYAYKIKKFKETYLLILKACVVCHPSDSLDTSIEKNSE

[8] = molecular target: A2A receptor (Homo sapiens, UniProt P29274); experiment: biochemical
[9] = tested on: MPTP-lesion marmosets; experiment: Disability reversal score in MPTP-lesion marmosets, PK/PD modelling; type: in vivo, marmoset; conditions: MPTP-treated marmosets, 0.1-3 mg/kg, Emax PK/PD modelling
Experimental: Marmosets received several MPTP regimens (single MPTP regimen: 2 mg/kg, s.c., per day for 3 consecutive days) before the marmosets were used for PK/PD measurements.
In the absence of any striatal occupancy data in marmoset to relate plasma concentration needed for EC80 A2A occupancy for human dose projection, a daily dose range of 3-24 mg was established based on predicted EC50-80 plasma concentrations of rat striatal occupancy and marmoset disability reversal score.

Chain of A2A receptor (Rattus norvegicus, UniProt P30543) (P30543 whole entry): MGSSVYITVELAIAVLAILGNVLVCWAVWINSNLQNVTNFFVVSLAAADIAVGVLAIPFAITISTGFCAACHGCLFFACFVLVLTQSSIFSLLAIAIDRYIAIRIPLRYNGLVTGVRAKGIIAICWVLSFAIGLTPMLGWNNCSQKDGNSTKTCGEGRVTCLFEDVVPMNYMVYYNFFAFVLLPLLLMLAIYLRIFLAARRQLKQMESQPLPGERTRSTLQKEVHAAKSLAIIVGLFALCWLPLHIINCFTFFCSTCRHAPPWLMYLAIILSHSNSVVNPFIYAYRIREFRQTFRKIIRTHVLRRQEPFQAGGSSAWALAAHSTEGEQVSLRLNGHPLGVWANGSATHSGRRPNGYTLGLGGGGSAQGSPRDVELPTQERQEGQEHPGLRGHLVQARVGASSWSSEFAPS
Chain of A2A receptor (Mus musculus, UniProt Q60613) (Q60613 whole entry): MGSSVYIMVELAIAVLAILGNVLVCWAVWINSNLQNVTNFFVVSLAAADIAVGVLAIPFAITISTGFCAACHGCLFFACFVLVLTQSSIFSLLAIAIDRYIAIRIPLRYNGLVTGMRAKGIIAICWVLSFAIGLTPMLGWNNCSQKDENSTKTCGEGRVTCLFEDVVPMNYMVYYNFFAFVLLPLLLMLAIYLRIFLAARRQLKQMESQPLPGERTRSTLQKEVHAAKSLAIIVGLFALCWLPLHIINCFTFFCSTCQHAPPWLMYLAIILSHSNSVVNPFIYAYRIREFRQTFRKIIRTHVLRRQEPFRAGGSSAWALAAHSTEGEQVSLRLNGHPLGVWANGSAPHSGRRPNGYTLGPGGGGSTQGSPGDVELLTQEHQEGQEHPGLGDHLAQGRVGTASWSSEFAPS
Chain of A2A receptor (Canis lupus familiaris, UniProt P11617) (P11617 whole entry): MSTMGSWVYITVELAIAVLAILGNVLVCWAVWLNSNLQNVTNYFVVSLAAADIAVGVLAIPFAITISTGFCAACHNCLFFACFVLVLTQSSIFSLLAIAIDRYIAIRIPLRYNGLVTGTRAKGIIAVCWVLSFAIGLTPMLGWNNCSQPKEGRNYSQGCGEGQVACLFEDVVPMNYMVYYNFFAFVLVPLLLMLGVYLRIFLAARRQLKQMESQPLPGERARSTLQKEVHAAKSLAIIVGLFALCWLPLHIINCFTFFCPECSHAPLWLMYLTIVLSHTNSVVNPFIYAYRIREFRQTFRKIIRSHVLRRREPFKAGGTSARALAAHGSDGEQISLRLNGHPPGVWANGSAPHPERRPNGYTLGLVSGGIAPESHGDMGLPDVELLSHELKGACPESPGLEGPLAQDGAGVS
Chain of A2A receptor (Homo sapiens, UniProt P29274) (P29274 whole entry): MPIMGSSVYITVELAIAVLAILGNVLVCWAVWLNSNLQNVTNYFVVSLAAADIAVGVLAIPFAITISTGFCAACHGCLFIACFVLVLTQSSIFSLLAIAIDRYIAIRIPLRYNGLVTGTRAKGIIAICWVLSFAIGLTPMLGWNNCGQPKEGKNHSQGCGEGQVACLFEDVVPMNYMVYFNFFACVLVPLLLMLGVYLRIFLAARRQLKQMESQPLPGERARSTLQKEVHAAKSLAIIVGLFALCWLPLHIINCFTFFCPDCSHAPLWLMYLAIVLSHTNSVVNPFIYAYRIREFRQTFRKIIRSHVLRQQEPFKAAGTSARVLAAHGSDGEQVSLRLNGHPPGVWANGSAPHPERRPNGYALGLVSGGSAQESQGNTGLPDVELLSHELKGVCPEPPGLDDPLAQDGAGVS

For `Cc1ccc(C(=O)Nc2nc(-c3ccco3)c(C(=O)C3CCOCC3)s2)cn1` [Compound 504], the Ki [1] was 0.322 ± 0.0114 nM, the Tmax [2] was 1 to 2 h and the Ki [3] was 0.1 ± 0.0072 nM. For the same compound, the Ki [4] was 305 ± 6.6 nM, the “correct trials completed by all rats in Bin 5” value ([5]; extended 250 trials, 0.1 mg/kg) was “at least 13” and the “decline in % correct and number of correct responses, increase in omissions over Bins 4 and 5” value ([5]; extended 250 trials, 0.03-0.1 mg/kg oral, particularly 0.06-0.1 mg/kg) was “protected against the decline”. For the same compound, the premature responses ([5]; long ITI, 0.06 mg/kg oral) was “increased”, the “accuracy under long ITI” value ([5]; long ITI, 0.06 mg/kg oral, P=0.09) was “non-significant trend of compound 504 to reduce accuracy” and the “performance in terms of choice accuracy” value ([5]; short ITI, 0.03-0.06 mg/kg oral, particularly at 3 s ITI) was “improved performance”. For the same compound, the “% correct, # incorrect responses, omissions, premature responses” value ([5]; short ITI, averaged over the multiple ITI) was “improving performance on each measure”, the “other measures (% correct, # correct/incorrect responses, omissions, magazine latency)” value ([5]; standard conditions) was “unaffected” and the “speed of responding (correct latency)” value ([5]; standard conditions, doses 0.03-0.1 mg/kg oral) was “significantly increased speed of responding”. For the same compound, the premature responding ([5]; standard conditions, significant only at 0.1 mg/kg) was “increased premature responding”, the Ki [6] was 0.283 ± 0.0269 nM and the Ki [7] was 428 ± 72.5 nM. The Ki [8] was 0.118 ± 0.0023 nM and the “EC80 plasma concentration for disability reversal score” value [9] was 0.175 µg/mL.
